Experiments:
human NEU2 = human NEU2 (Homo sapiens (Human), UniProt Q9Y3R4); assay: human NEU2 sialidase inhibition
Source text: (§1) Enzymatic activity may be defined as inhibited if the rate measured by the Michaelis-Menten equation in an in vitro assay using a substrate with a terminal sialic acid is inhibited by at least 50%. More specifically, a human sialidase inhibitor may be a compound that inhibits the rate of at least one human sialidase by at least 50% as measured by the Michaelis-Menten equation in an in vitro assay using the fluorometric substrate 4MU-NANA [2′-(4-Methylumbelliferyl)-α-D-N-acetylneuraminic acid.
(§2) In general, sialidase activity, including human sialidase activity, may be assessed at 37° C. in the presence of buffers ranging in pH from 3.7 to 7.4. […] Bovine serum albumin (BSA) is added to the buffer at a concentration of 100 ug/ml. Sialidase at a final concentration of 300 ng/ml is then added to the buffer. A sialidase inhibitor is then added to the mixture at a series of final concentrations. The reaction mixture is incubated for 30 minutes to allow the inhibitor to bind the sialidase. The fluorometric substrate 4MU-NANA [2′-(4-Methylumbelliferyl)-α-D-N-acetylneuraminic acid sodium salt hydrate is then added at a final concentration of 200 μM. […] The total volume of each reaction mixture is 0.1 ml. The cleavage of 4MU-NANA is then monitored by fluorescence every 20 minutes for 5 hours with excitation light at 360 nm and the fluorescence emission at 460 nm.
(§3) The fluorescence in the absence of sialidases is subtracted from all readings.

human NEU1 = human NEU1 (Homo sapiens (Human), UniProt Q99519); assay: human NEU1 sialidase inhibition; settings: read-out: NEU1 IC50; human NEU1
Source text: as §1, §2, §3

human NEU3 = human NEU3 (Homo sapiens (Human), UniProt Q9UQ49); assay: human NEU3 sialidase inhibition; settings: for IC50: read-out: NEU3 IC50, human NEU3
Source text: as §1, §2, §3

human NEU4 = human NEU4 (Homo sapiens (Human), UniProt Q8WWR8); assay: human NEU4 sialidase inhibition; settings: read-out: NEU4 IC50; human NEU4
Sequence of human NEU4 (Q8WWR8 whole entry): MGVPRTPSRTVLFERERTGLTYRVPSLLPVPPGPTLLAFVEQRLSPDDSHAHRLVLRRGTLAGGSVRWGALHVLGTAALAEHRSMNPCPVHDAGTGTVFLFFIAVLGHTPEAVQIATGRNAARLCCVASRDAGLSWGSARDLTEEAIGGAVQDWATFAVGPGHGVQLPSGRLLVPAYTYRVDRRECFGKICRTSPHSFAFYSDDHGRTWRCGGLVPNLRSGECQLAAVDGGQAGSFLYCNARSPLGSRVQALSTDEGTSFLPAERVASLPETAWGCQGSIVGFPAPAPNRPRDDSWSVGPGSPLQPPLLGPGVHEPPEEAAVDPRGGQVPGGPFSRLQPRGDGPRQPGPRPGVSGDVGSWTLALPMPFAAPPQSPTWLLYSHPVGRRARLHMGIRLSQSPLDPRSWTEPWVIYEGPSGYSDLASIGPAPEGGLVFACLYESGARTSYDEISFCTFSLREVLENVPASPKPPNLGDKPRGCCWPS
Source text: as §1, §2, §3

Sequence of human NEU2 (Q9Y3R4 whole entry): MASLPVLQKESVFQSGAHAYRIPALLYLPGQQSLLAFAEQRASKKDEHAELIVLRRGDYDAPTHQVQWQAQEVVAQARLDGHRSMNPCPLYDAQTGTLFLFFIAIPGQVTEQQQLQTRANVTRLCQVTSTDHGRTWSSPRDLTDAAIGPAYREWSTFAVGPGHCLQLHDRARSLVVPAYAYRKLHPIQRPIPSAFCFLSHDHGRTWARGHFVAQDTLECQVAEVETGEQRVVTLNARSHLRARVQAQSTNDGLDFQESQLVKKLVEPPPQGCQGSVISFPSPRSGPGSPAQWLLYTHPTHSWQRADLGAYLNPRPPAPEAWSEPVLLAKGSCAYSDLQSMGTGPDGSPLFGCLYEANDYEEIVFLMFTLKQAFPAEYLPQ
Sequence of human NEU3 (Q9UQ49 whole entry): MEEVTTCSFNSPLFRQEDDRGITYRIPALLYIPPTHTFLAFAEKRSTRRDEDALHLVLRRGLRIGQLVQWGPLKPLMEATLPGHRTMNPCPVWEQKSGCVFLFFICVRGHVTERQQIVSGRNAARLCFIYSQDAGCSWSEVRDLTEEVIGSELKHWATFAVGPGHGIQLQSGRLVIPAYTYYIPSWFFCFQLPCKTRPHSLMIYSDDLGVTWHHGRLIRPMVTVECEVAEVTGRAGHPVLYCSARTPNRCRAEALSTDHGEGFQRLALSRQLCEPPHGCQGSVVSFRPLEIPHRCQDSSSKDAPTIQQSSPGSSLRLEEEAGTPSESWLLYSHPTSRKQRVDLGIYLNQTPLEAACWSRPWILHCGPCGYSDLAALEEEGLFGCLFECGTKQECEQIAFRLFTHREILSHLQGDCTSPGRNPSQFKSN

2,6-Anhydro-3,5-dideoxy-5-glycolylamido-D-glycero-D-galactonon-2-enonic acid [Compound 39]
IC50 (human NEU2; read-out: NEU2 IC50, human NEU2): 34 ± 4 µM

CC(=O)NC[C@H](O)[C@H](O)[C@@H]1OC(C(=O)O)=C[C@H](O)[C@H]1NC(C)=O [Compound 2]
IC50 (human NEU1): 58 µM
IC50 (human NEU3): > 1000 µM
IC50 (human NEU4): 580 µM

CC(=O)N[C@H]1[C@H]([C@@H](O)[C@@H](O)CNC(=O)c2ccccc2)OC(C(=O)O)=C[C@@H]1O [Compound 3]
IC50 (human NEU1): 13 µM
IC50 (human NEU3): 320 µM
IC50 (human NEU4): 810 µM

CC(=O)N[C@H]1[C@H]([C@@H](O)[C@@H](O)CNC(=O)C2CCCC2)OC(C(=O)O)=C[C@@H]1O [Compound 4]
IC50 (human NEU1): 135 µM
IC50 (human NEU3): > 1000 µM
IC50 (human NEU4): > 1000 µM

CC(=O)N[C@H]1[C@H]([C@@H](O)[C@@H](O)CNC(=O)C2CC2)OC(C(=O)O)=C[C@@H]1O [Compound 5]
IC50 (human NEU1): 680 µM
IC50 (human NEU3): > 1000 µM
IC50 (human NEU4): 825 µM

CCCC(=O)NC[C@H](O)[C@H](O)[C@@H]1OC(C(=O)O)=C[C@H](O)[C@H]1NC(C)=O [Compound 6]
IC50 (human NEU1): 32 µM
IC50 (human NEU3): > 1000 µM

CC(=O)N[C@H]1[C@H]([C@@H](O)[C@@H](O)CNC(=O)CC(C)C)OC(C(=O)O)=C[C@@H]1O [Compound 7]
IC50 (human NEU1): 565 µM
IC50 (human NEU3): > 1000 µM
IC50 (human NEU4): > 1000 µM

CCCCC(=O)NC[C@H](O)[C@H](O)[C@@H]1OC(C(=O)O)=C[C@H](O)[C@H]1NC(C)=O [Compound 8]
IC50 (human NEU4): > 1000 µM

CC(=O)N[C@@H]1[C@@H](O)C=C(C(=O)O)C[C@H]1OCC(C)C [Compound 12]
Ki (human NEU2): 880 µM

CC(=O)N[C@@H]1[C@@H](O)C=C(C(=O)O)C[C@H]1OCCCO [Compound 13]
Ki (human NEU2): 740 µM

CC(=O)N[C@@H]1[C@@H](O)C=C(C(=O)O)C[C@H]1OCC(O)CO (stereo partly drawn) [Compound 14]
Ki (human NEU2): 1400 µM

CC(=O)N[C@H]1[C@H]([C@H](O)[C@H](O)Cn2ccnn2)OC(C(=O)O)=C[C@@H]1O [Compound 15]
IC50 (human NEU3): 70 ± 20 µM

CC(=O)N[C@H]1[C@H]([C@H](O)[C@H](O)Cn2cc(-c3ccccc3)nn2)OC(C(=O)O)=C[C@@H]1O [Compound 16]
IC50 (human NEU3): 20 ± 10 µM

CCCCCCc1cn(C[C@@H](O)[C@@H](O)[C@@H]2OC(C(=O)O)=C[C@H](O)[C@H]2NC(C)=O)nn1 [Compound 17]
IC50 (human NEU3): 23 ± 4 µM

CCOc1cn(C[C@@H](O)[C@@H](O)[C@@H]2OC(C(=O)O)=C[C@H](O)[C@H]2NC(C)=O)nn1 [Compound 18]
IC50 (human NEU3): 300 ± 200 µM

CCOC(OCC)c1cn(C[C@@H](O)[C@@H](O)[C@@H]2OC(C(=O)O)=C[C@H](O)[C@H]2NC(C)=O)nn1 [Compound 19]
IC50 (human NEU3): 130 ± 20 µM

CC(=O)N[C@H]1[C@H]([C@H](O)[C@H](O)Cn2cc(COc3ccccc3)nn2)OC(C(=O)O)=C[C@@H]1O [Compound 20]
IC50 (human NEU3): 45 ± 3 µM

CC(=O)N[C@H]1[C@H]([C@H](O)[C@H](O)Cn2cc(CO)nn2)OC(C(=O)O)=C[C@@H]1O [Compound 21]
IC50 (human NEU3): 300 ± 400 µM

CC(=O)N[C@H]1[C@H]([C@H](O)[C@H](O)Cn2cc(CCO)nn2)OC(C(=O)O)=C[C@@H]1O [Compound 22]
IC50 (human NEU3): 400 ± 600 µM

CC(=O)N[C@H]1[C@H]([C@H](O)[C@H](O)Cn2cc(CCCO)nn2)OC(C(=O)O)=C[C@@H]1O [Compound 23]
IC50 (human NEU3): 500 ± 200 µM

CC(=O)N[C@H]1[C@H]([C@H](O)[C@H](O)Cn2cc(C(C)(C)O)nn2)OC(C(=O)O)=C[C@@H]1O [Compound 24]
IC50 (human NEU3): 300 ± 500 µM

O=C(Cn1ccnn1)N[C@H]1[C@H]([C@H](O)[C@H](O)CO)OC(C(=O)O)=C[C@@H]1O [Compound 25]
Ki (human NEU3): 21 ± 8 µM

Source: patent US20250144172A1, “ANTI-FIBROTIC SIALIDASE INHIBITOR COMPOUNDS AND METHODS OF USE” (The Texas A&M University System, priority 2016, published 2025)
